We go through one substance from patent US20130051651A1, “QUANTITATIVE IMAGE ANALYSIS FOR WOUND HEALING ASSAY” (PURDUE RESEARCH FOUNDATION, priority 2010, published 2013).

The assay has as its system MCF7 cells. Briefly: wound healing assay analysed with the quantitative image analysis algorithm. Format: cell-based. From the text:
The wound healing assay, or “scratch” assay, is a traditional method used to study cell proliferation and migration. […] The cultures are then imaged over time using bright field or fluorescence microscopy to monitor the growth and migration of cells into the wound as it is healing.
Illustrative embodiments of the quantitative image analysis algorithm 100 have been tested multiple times and have provided robust and dependable wound healing assay analysis. By way of example, the […] 102 of several wound healing assays were measured at 24 hour time points (up to 96 hours). […] In this experiment, the algorithm took 90 minutes to process five time points for each wound healing assay in a 96 well plate (i.e., a total of 480 bright point images 102 being analyzed). […]
Furthermore, the data produced by the quantitative image analysis algorithm 100 matches traditional wound healing assay data. […]

Regarding neuregulin 2β, under “MCF7 cells treated with varying doses, different time points, dose response 48 hours after wound creation (FIGS. 3A, 3B)”, the “percentage of wound healing using the wound area calculated by the algorithm” value is on record as “dose-dependent increase in healing”. Further, the “healing curve (speed of wound healing)” value (MCF7 cells, 4 different doses, treated versus untreated cells over time (FIG. 3A)) was “treated cells healed faster”.
